Laboratory results from ChEMBL document CHEMBL2046378, “Investigation of chalcones as selective inhibitors of the breast cancer resistance protein: critical role of methoxylation in both inhibition potency and cytotoxicity” (J Med Chem, 2012).

Experiments:
ABCG2 [1] = molecular target: T1, ABCG2 (Homo sapiens, UniProt Q9UNQ0); assay: Inhibition of ABCG2-mediated mitoxantrone efflux expressed in HEK293 cells at 2 uM after 48 hrs by flow cytometric analysis; type: cell-based; details: HEK293 cells expressing ABCG2, probe mitoxantrone
T1 sequence (Q9UNQ0 whole entry): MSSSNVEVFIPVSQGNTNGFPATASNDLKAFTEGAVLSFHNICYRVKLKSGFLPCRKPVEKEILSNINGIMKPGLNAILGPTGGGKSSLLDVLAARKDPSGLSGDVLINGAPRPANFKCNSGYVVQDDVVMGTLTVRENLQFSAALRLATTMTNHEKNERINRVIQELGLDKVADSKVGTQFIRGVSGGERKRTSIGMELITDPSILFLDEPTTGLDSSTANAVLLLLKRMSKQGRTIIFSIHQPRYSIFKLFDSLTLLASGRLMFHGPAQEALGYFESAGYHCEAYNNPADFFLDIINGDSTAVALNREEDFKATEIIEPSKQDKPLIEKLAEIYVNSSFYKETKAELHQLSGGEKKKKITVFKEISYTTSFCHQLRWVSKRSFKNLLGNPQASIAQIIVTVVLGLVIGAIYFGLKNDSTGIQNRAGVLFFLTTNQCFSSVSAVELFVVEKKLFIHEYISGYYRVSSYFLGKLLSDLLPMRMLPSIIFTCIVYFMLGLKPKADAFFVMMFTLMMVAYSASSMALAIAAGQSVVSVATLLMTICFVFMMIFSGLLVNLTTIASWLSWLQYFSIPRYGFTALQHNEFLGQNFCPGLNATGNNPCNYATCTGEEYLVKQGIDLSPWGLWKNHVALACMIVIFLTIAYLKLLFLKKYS

ABCG2 [2] = molecular target: T1, ABCG2; assay: Inhibition of ABCG2-mediated mitoxantrone efflux expressed in HEK293 cells at 10 uM after 48 hrs by flow cytometric analysis; type: cell-based; details: HEK293 cells expressing ABCG2, probe mitoxantrone
[3] = molecular target: ATP-dependent translocase ABCB1 (Homo sapiens, UniProt P08183); assay: Inhibition of ABCB1-mediated mitoxantrone efflux expressed in HEK293 cells at 10 uM after 48 hrs by flow cytometric analysis; type: cell-based; details: hek293, 48 h
Chain of ATP-dependent translocase ABCB1 (P08183 whole entry): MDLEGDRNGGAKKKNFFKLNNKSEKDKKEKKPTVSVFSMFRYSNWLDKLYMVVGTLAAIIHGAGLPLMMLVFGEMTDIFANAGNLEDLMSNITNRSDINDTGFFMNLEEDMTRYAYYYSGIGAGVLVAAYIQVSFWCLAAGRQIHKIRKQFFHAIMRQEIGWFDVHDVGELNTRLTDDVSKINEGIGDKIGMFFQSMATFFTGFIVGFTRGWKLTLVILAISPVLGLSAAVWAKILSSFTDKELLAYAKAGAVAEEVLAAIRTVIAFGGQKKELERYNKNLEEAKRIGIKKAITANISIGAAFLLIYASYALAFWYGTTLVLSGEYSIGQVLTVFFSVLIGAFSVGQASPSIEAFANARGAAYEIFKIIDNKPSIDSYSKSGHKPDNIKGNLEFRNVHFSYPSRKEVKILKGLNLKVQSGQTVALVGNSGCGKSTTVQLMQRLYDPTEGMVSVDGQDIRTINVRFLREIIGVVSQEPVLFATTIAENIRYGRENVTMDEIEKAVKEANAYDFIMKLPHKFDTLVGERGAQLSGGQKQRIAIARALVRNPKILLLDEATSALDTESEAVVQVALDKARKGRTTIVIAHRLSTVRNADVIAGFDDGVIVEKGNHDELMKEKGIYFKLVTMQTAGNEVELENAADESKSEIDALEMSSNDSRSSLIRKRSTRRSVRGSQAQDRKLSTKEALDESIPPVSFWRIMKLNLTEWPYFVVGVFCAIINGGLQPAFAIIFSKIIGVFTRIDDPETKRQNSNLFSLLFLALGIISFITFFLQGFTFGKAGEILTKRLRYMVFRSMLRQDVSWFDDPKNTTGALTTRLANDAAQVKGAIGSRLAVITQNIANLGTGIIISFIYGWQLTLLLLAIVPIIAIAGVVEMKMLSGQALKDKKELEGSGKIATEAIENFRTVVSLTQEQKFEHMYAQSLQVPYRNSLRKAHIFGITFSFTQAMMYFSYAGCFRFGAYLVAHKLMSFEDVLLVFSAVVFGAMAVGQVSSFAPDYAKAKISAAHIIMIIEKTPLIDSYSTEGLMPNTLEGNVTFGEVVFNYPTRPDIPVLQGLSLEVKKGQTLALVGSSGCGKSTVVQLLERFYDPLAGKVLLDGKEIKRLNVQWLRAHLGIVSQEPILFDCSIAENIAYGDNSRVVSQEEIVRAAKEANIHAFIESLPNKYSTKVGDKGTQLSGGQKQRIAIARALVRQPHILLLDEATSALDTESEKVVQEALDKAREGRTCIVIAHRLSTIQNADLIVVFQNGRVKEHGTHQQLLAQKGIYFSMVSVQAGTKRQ

HEK293 = assay: Cytotoxicity against human HEK293 cells transfected with ABCG2 up to 100 uM after 72 hrs by MTT assay; type: ADME, cell-based; details: hek293, 72 h
[4] = molecular target: T2, Broad substrate specificity ATP-binding cassette transporter ABCG2 (Homo sapiens, UniProt Q9UNQ0); assay: Inhibition of ABCG2-mediated mitoxantrone efflux expressed in HEK293 cells after 48 hrs by flow cytometric analysis; type: cell-based
T2 sequence (Q9UNQ0 whole entry): T1 sequence (Q9UNQ0 whole entry)

[5] = molecular target: Multidrug resistance-associated protein 1 (Homo sapiens, UniProt P33527); assay: Inhibition of ABCC1-mediated calcein transport expressed in human HEK293 cells at 10 uM after 48 hrs by flow cytometric analysis; type: cell-based; details: hek293, 48 h
Chain of Multidrug resistance-associated protein 1 (P33527 whole entry): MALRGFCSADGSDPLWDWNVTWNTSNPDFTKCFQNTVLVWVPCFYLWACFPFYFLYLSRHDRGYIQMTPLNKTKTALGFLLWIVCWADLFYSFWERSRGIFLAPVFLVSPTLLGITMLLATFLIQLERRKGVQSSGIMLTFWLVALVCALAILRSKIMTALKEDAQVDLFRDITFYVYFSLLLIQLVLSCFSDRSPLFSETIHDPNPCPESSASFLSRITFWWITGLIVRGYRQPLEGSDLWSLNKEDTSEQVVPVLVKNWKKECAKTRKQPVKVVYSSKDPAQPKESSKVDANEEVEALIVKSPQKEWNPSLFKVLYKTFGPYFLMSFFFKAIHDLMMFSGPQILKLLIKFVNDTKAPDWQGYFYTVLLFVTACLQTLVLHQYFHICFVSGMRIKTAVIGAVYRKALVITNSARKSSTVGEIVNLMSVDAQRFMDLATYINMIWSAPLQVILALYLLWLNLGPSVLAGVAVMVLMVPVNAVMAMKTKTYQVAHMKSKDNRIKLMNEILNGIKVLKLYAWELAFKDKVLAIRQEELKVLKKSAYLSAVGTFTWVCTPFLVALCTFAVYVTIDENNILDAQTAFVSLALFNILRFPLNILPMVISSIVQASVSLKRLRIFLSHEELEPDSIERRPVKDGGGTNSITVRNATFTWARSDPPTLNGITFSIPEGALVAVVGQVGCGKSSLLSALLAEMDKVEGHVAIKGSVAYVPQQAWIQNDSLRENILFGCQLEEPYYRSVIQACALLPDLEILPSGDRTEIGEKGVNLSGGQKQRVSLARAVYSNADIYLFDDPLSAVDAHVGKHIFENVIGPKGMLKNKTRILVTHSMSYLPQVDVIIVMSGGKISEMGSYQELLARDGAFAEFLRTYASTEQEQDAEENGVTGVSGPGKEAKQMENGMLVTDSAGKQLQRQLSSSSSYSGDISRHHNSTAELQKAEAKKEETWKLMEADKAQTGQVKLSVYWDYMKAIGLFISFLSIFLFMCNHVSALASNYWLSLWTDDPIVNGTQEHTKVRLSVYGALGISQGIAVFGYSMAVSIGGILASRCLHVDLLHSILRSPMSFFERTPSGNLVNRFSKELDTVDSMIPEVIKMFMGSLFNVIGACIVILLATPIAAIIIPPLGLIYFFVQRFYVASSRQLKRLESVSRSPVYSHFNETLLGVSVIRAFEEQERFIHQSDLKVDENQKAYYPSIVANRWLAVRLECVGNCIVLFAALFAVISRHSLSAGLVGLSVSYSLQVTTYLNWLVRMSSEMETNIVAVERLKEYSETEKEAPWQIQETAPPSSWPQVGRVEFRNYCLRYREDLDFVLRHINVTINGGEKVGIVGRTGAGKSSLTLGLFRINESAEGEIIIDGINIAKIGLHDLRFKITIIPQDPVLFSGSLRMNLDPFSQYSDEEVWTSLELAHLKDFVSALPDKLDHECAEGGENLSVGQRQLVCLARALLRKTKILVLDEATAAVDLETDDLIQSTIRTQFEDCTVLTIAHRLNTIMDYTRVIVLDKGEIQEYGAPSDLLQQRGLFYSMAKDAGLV

[6] = Cytotoxicity against human HEK293 cells transfected with ABCG2 after 72 hrs by MTT assay; type: ADME, cell-based; details: read-out: IG50
ABCG2 [7] = assay: Therapeutic index, ratio of IG50 for HEK293 cells to IC50 for ABCG2; type: cell-based; details: human, read-out: TI
ABCG2 [8] = molecular target: T1, ABCG2; assay: Inhibition of ABCG2-mediated mitoxantrone efflux expressed in HEK293 cells at 5 uM after 48 hrs by flow cytometric analysis; type: cell-based; details: HEK293 cells expressing ABCG2, probe mitoxantrone

Row | SMILES | inhibition at 48 h, 2 µM (ABCG2 [1]) | inhibition at 48 h, 10 µM (ABCG2 [2]) | inhibition (INH) [3] | Activity (HEK293) | IC50 [4] | inhibition (INH) [5] | GI50 at 72 h [6] | selectivity ratio (ABCG2 [7]) | inhibition at 48 h, 5 µM (ABCG2 [8])
1 | COc1ccc(C(=O)/C=C/c2cn(C)c3ccccc23)cc1 | 55.5% | 89% |  |  |  |  |  |  | 
2 | COc1cc(O)c(C(=O)/C=C/c2c(OC)cccc2OC)c(OC)c1 |  |  | Not Active | Non-toxic | 350 nM | Not Active | 50000 nM |  | 
3 | COc1cc(OC)c(C(=O)/C=C/c2cn(C)c3ccccc23)c(OC)c1 | 3.7% | 30% |  |  |  |  |  |  | 
4 | COc1ccc(C(=O)/C=C/c2cn(C)c3ccccc23)c(OC)c1 | 88.2% | 125% |  |  |  |  |  |  | 
5 | COc1cccc(/C=C/C(=O)c2c(O)cc(OC)cc2OC)c1 |  |  | Not Active | Non-toxic | 260 nM | Not Active | 10000 nM |  | 
6 | COc1cccc(OC)c1/C=C/C(=O)c1cn(C)c2ccccc12 | 104% | 113% | Not Active | Non-toxic | 270 nM | Not Active | 50000 nM | 185 | 
7 | Cn1cc(/C=C/C(=O)c2cn(C)c3ccccc23)c2ccccc21 | 52.1% | 98.8% |  |  |  |  |  |  | 
8 | COc1cc(/C=C/C(=O)c2c(O)cc(OC)cc2OC)cc(OC)c1 |  |  | Not Active | Non-toxic | 170 nM | Not Active | 6000 nM |  | 
9 | COc1cccc(OC)c1C(=O)/C=C/c1cn(C)c2ccccc12 | 2.9% | 17.4% |  |  |  |  |  |  | 
10 | COc1cc2c(cc1OC)CN(CCc1ccc(NC(=O)c3cccc4c(=O)c5cccc(OC)c5[nH]c34)cc1)CC2 |  |  |  |  |  |  |  |  | 100%
11 | COc1cc(OC)c(/C=C/C(=O)c2cn(C)c3ccc(OC)cc23)c(OC)c1 | 89.1% | 111% | Not Active | Non-toxic | 350 nM | Not Active | 1000 nM | 3 | 
12 | COc1cc(OC)c(/C=C/C(=O)c2cn(C)c3ccccc23)c(OC)c1 | 93.8% | 109% | Not Active | Non-toxic | 450 nM | Not Active | 4000 nM | 9 | 
13 | COc1cc(/C=C/C(=O)c2cn(C)c3ccccc23)cc(OC)c1OC | 49.3% | 70% |  |  |  |  |  |  | 
14 | COc1ccc(C(=O)/C=C/c2ccc(OC)c(OC)c2)c(O)c1 | 71.1% | 76.5% |  |  |  |  |  |  | 
15 | COc1ccc(/C=C/C(=O)c2cn(C)c3ccccc23)c(OC)c1 | 83.8% | 108% |  |  |  |  |  |  | 
